# Measured values: publication PMC9468151, “Identification of a binding site on soluble RANKL that can be targeted to inhibit soluble RANK-RANKL interactions and treat osteoporosis” (Nature Communications, 2022)
# Where “and” joins values, the source holds several entries; their conditions need not be identical. Identical values can stand only once.
# How the values were obtained:
# C3H10T1/2 = C3H10T1/2 proliferation and osteoblastic mineralization; type: cell-based, mouse; settings: C3H10T1/2 or human primary osteoblasts, osteogenic differentiation medium
# Method: Supplementary Fig.5. In Vitro Activity Evaluation and Signal Pathway Study of compound S3-15. a Western blot of PI3K and AKT phosphorylation in RAW264.7 cells treating with or without S315 and sRANKL at different point-in-time. b EC50 curve and representative OC microphotographs of mature osteoclasts apoptosis assay with S3-15. n=3 biological replicates for each concentration. EC50 values were calculated by GraphPad Prism 8 software. c EC50 curve and representative OC microphotographs of mature osteoclasts apoptosis assay with S3, S3-03 and S3-05. n=3 biological replicates for each concentration. EC50 values were calculated by GraphPad Prism […]
# pits in dose-dependent manner (mouse BMMs). e Precursor osteoblasts C3H10T12 proliferation-promoting of S3, S3-05 and S3-15. f Osteoblastic mineralization after treatment with S3, S3-05 and S3-15. C3H10T12 cells were cultured in osteoblast induction differentiation medium with or without treatment for 14 days and determinate of calcium deposition in differentiated osteoblasts by Alizarin red staining. Error bars represent ± s.d. n=3. Statistical difference was determined by unpaired two-tailed Student’s t test. Significant difference p value is < 0.05. Scale […]
# (1 picture or pasted object on this page, not shown here)
# OVX rats = experiment: Osteoporosis therapeutic study in OVX rats (micro-CT); type: in vivo, rat; design: Tb.N: unit not given beside the values; settings: for BV/TV / Tb.N / Tb.Sp / Tb.Th: OVX + compound, individual animals; for BV/TV of OVX rats: oral 10 mg/kg/day, 12 weeks, in words
# Method: Female SD rats or C57BL/6 mice were cared until they grown up to 6 months old or 10 weeks old, respectively. Then we subjected them to either bilateral ovariectomy or sham operation after anesthesia with 10% chloral hydrate (0.3 mL/100 g). Then all the rats or mice were intramuscular injected of penicillin to prevent infection in the first week of surgery. For rat experiments, after 12 weeks of operation, 3 rats from sham-operated or ovariectomized groups were random selected to determine bone mass by micro-CT imaging biopsy to verify successful produced bone loss(data unshown). Then the OVX rats were individually administrated with S3-15, S3, and S3-05 orally with (10 mg/kg/day) for another 12 weeks. For mouse experiments, after 4 weeks of surgery, the OVX mice were treated with 10 mg/kg/day S3-15 for another 4 weeks.
# The weight of rats or mice were recorded every week in the treatment period. After treatment, the rats were harvested, the serum, heart, liver, spleen, lung, kidney, thymus, and femurs were all collected and subjected to subsequent analysis. The right femurs of rats or mice were cleaned excess soft tissue, fixed in 10% formalin, and processed them for microcomputed tomography (micro-CT) analysis. Left mice femurs were collected and excarnate for biomechanical strength testing. Mice peripheral blood were as well as collected for flow cytometry analyzing.
# The right femurs of rats or mice were further analyzed with micro-CT on Inveon PET/CT (Siemens, Germany). We used micro-CT to scan the femur from the femoral head to the femoral condyle, using 19 μm resolution, 80 kV 500uA, 360 projection, 3000-6000 image threshold, full rotation cone beam. Three-dimensional reconstruction and histomorphometric analyses of trabecular bone were conducted with the IAW (Inveon analysis workstation) analysis software. The trabecular extended 1 mm (rat) or 0.5 mm (mice) proximally to the end of the distal growth plate over 2 mm (rats) or 1 mm (mice) toward the diaphysis was selected as the region of interest (ROI) for the analysis. The resulting two-dimensional images of trabecular bone in relative cross sections were shown in grayscale. Trabecular bone parameters were measured including bone volume/tissue volume (BV/TV), bone surface area/bone volume (BS/BV), trabecular number (Tb.N), trabecular thickness (Tb.Th), trabecular separation(Tb.Sp) and trabecular pattern factor(Tb.P.F).
# [1] = In vitro cytotoxicity assay (MTT); type: cell-based, mouse; settings: mouse, RAW264.7 cells; for viability at 24 h, 0.08 μM: conc. 0.08 μM; for viability at 24 h, 0.08 μM / viability at 24 h, 0.28 μM / viability at 24 h, 0.92 μM / viability at 24 h, 3.03 μM / viability at 24 h, 10 μM: read-out: cell viability relative to 0 μM (fig. S5e); for viability at 24 h, 0.28 μM: conc. 0.28 μM; for viability at 24 h, 0.92 μM: conc. 0.92 μM; for viability at 24 h, 3.03 μM: conc. 3.03 μM; for viability at 24 h, 10 μM: conc. 10 μM; for CC50 at 24 h: RAW264.7, MTT
# How it was run: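 Log-phase cells were seeded at 6 × 10^3 per well and incubated 24 h, with viability read by MTT. Growth inhibition (%) was calculated from OD relative to vehicle wells. CC50 came from nonlinear regression curve fitting.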
# [2] = test system: RANKL-induced resorption pits; experiment: Hydroxyapatite resorption assay; type: cell-based, mouse; settings: in words
# Method: BMMs (1 × 10^5 cells/well) were cultured onto 6-well collagen-coated plates and stimulated with 100 ng/mL sRANKL and 10 ng/mL M-CSF for 3 days to generate early stage of osteoclasts began differentiation. Then early-stage osteoclasts were gently harvested using cell dissociation solution, and seeded into OsteoAssay Surface (hydroxyapatite-coated) 24-well plates. Early-stage osteoclasts were continue incubated in a medium containing sRANKL and M-CSF with or without treatment. After 48 h, wells were bleached to remove cells, followed by image acquisition for the measurement of resorbed areas using a Leica microscope. The percentage of surface resorbed was analyzed using ImageJ software.
# [3] = test system: sRANKL induced osteoclast differentiation; experiment: In vitro anti-osteoclastogenesis activity determination (TRAP staining); type: cell-based, mouse; design: key to inhibition of osteoclastogenesis, dose-response (fig. S2a): % inhibition = 100 − (treated−unstimulated)/(untreated−unstimulated)×100; settings: for IC50: 120 h, BMMs, M-CSF + 100 ng/mL sRANKL, 5 days, TRAP staining, read-out: OC IC50 (anti-osteoclastogenesis activity)
# How it was run: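 Mouse bone-marrow macrophages in 10 ng/mL M-CSF were stimulated with 100 ng/mL sRANKL plus compound at 9 concentrations, refreshed every 2 days, triplicate wells. After 5 days TRAP-stained osteoclasts were counted; inhibition normalised to untreated and unstimulated controls, IC50 by nonlinear regression.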
# [4] = Mus musculus, Osteoclast, conc. 0.0843226 μM, three replicate columns, read-out: inhibition of osteoclastogenesis, dose-response (fig. S2a)
# [5] = Mus musculus, Osteoclast, conc. 0.278265 μM, three replicate columns, read-out: inhibition of osteoclastogenesis, dose-response (fig. S2a)
# [6] = Mus musculus, Osteoclast, conc. 0.918274 μM, three replicate columns, read-out: inhibition of osteoclastogenesis, dose-response (fig. S2a)
# [7] = Mus musculus, Osteoclast, conc. 3.0303 μM, three replicate columns, read-out: inhibition of osteoclastogenesis, dose-response (fig. S2a)
# [8] = Mus musculus, Osteoclast, conc. 10 μM, three replicate columns, read-out: inhibition of osteoclastogenesis, dose-response (fig. S2a)
# [9] = Mus musculus, Osteoclast, conc. 33 μM, three replicate columns, read-out: inhibition of osteoclastogenesis, dose-response (fig. S2a)
# [10] = conc. 0.0023464 μM, three replicate columns
# [11] = conc. 0.00774313 μM, three replicate columns
# [12] = conc. 0.0255523 μM, three replicate columns
# [13] = conc. 0.0843226 μM, three replicate columns
# [14] = conc. 0.278265 μM, three replicate columns
# [15] = conc. 0.918274 μM, three replicate columns
# [16] = conc. 3.0303 μM, three replicate columns
Structure (SMILES),cell proliferation and mineralization (C3H10T1/2),BV/TV (OVX rats),Tb.N (OVX rats),Tb.Sp (OVX rats),Tb.Th (OVX rats),BV/TV of OVX rats (OVX rats),"viability at 24 h, 0.08 μM [1] [%]","viability at 24 h, 0.28 μM [1] [%]","viability at 24 h, 0.92 μM [1] [%]","viability at 24 h, 3.03 μM [1] [%]","viability at 24 h, 10 μM [1] [%]",CC50 at 24 h [1] [µM],bone resorption / RANKL-induced resorption pits [2],"IC50 ([3]; Mus musculus, Osteoclast) [µM]","inhibition at 0.0843226 µM [3, 4] [%]","inhibition at 0.278265 µM [3, 5] [%]","inhibition at 0.918274 µM [3, 6] [%]","inhibition at 3.0303 µM [3, 7] [%]","inhibition at 10 µM [3, 8] [%]","inhibition at 33 µM [3, 9] [%]",also measured
CCOC(=O)c1sc(NC(=O)/C(=N/Nc2ccc(O)cc2C(=O)O)C(C)=O)nc1C [S3-05],increase cell proliferation and mineralization,0.3016 and 0.3941 and 0.3094 and 0.3401 and 0.3769 and 0.3486 and 0.3669 and 0.2495,0.07827 and 0.1011 and 0.07596 and 0.08201 and 0.08333 and 0.08879 and 0.08221 and 0.07582,0.1812 and 0.1554 and 0.1695 and 0.1592 and 0.1377 and 0.1659 and 0.1419 and 0.2281,3.854 and 3.899 and 4.073 and 4.146 and 4.523 and 3.9259 and 4.463 and 3.291,increased,98.4,118,132,127,113,93.9,suppresses RANKL-induced resorption,0.41,24.5,45.8,58.5,78.9,86.2,98.5,"inhibition at 0.00774313 µM ([3]; Mus musculus, Osteoclast, conc. 0.00774313 μM, three replicate columns, read-out: inhibition of osteoclastogenesis, dose-response (fig. S2a)): 10.9%; inhibition at 0.0255523 µM ([3]; Mus musculus, Osteoclast, conc. 0.0255523 μM, three replicate columns, read-out: inhibition of osteoclastogenesis, dose-response (fig. S2a)): 21.5%; inhibition of osteoclastogenesis, dose-response (fig. S2a) [3, 10]: 5.216 and -0.5015 and 0.1003; inhibition of osteoclastogenesis, dose-response (fig. S2a) [3, 11]: 7.021 and 8.826; inhibition of osteoclastogenesis, dose-response (fig. S2a) [3, 12]: 18.7563 and 13.6409; inhibition of osteoclastogenesis, dose-response (fig. S2a) [3, 13]: 23.8716; inhibition of osteoclastogenesis, dose-response (fig. S2a) [3, 14]: 51.2538 and 38.6159; inhibition of osteoclastogenesis, dose-response (fig. S2a) [3, 15]: 65.3962 and 65.0953; inhibition of osteoclastogenesis, dose-response (fig. S2a) [3, 16]: 74.4233 and 77.4323; inhibition of osteoclastogenesis, dose-response (fig. S2a) ([3]; conc. 10 μM, three replicate columns): 87.0612 and 88.2648; inhibition of osteoclastogenesis, dose-response (fig. S2a) ([3]; conc. 33 μM, three replicate columns): 99.3982 and 99.6991"
"CCOC(=O)c1sc(NC(=O)/C(=N/Nc2ccccc2C(=O)O)C(C)=O)nc1C [S3, (E)-2-(2-(1-((5-(ethoxycarbonyl)-4-methylthiazol-2-yl)amino)-1,3-dioxobutan-2-ylidene) hydrazinyl) benzoic acid]",increase cell proliferation and mineralization,0.3479 and 0.4471 and 0.777 and 0.287 and 0.2327 and 0.4826 and 0.4913,0.07107 and 0.08431 and 0.1472 and 0.07083 and 0.06968 and 0.09727 and 0.1011,0.1332 and 0.1043 (2×) and 0.04227 and 0.1759 and 0.2298 and 0.1047,4.895 and 5.303 and 5.277 and 4.053 and 3.339 and 4.961 and 4.861,increased,105,107,111,121,120,44.6,suppresses RANKL-induced resorption,0.096,55.6,62.8,74.4,82.5,95.5,100,"inhibition of osteoclastogenesis, dose-response (fig. S2a) [3, 10]: 14.7982 and 23.3184 and -0.4484; inhibition of osteoclastogenesis, dose-response (fig. S2a) [3, 11]: 4.4843 and 2.691 and 14.7982; inhibition of osteoclastogenesis, dose-response (fig. S2a) [3, 12]: 42.1525 and 52.4664 and 21.0762; inhibition of osteoclastogenesis, dose-response (fig. S2a) [3, 13]: 52.4664 and 43.4978; inhibition of osteoclastogenesis, dose-response (fig. S2a) [3, 14]: 63.2287 and 72.1973; inhibition of osteoclastogenesis, dose-response (fig. S2a) [3, 15]: 71.7489 and 80.2691; inhibition of osteoclastogenesis, dose-response (fig. S2a) [3, 16]: 79.8206 and 91.0314"
